# Source: patent US20220128542A1, “TREATMENT EFFICIENCY EVALUATION” (TX MEDIC AB, priority 2019, published 2022)
# System: brain of rats subjected to severe traumatic brain injury (sTBI)
# Assay: Ingenuity pathway analysis of differentially regulated genes after sTBI (canonical pathways, diseases and molecular functions; Example 4)
# Set-up: species or system rat
# Details: 2 days after TBI
# Experimental: Pathway analysis of the differentially regulated genes was carried out using the Ingenuity pathway analysis package. The analysis was performed with special reference to pathways and molecular processes and diseases associated with neurodegenerative disease, including dementia, Alzheimer's disease, ALS, TBI and stroke, and with scarring and fibrosis, including glaucoma and normal pressure hydrocephalus (NPH) after subarachnoid haemorrhage.
# [1] = TBI + 5 mg/kg LMW-DS relative to control
substance,measurement,setting,value
sodium salt of dextran sulfate [LMW-DS],"Apoptosis (disease/function), z score",TBI + 5 mg/kg LMW-DS,0.601
same,"Behavior (disease/function), z score",TBI + 5 mg/kg LMW-DS,−2.009
same,"Carcinoma (disease/function), z score",TBI + 5 mg/kg LMW-DS,−2.071
same,"Cell death (disease/function), z score",TBI + 5 mg/kg LMW-DS,0.051
same,"Cell death of antigen presenting cells (disease/function), z score",TBI + 5 mg/kg LMW-DS,−0.62
same,"Cell death of immune cells (disease/function), z score",TBI + 5 mg/kg LMW-DS,−1
same,"Cell death of tumor cell lines (disease/function), z score",TBI + 5 mg/kg LMW-DS,−1.947
same,"Cell movement (disease/function), z score",TBI + 5 mg/kg LMW-DS,−3.723
same,"Cell movement of tumor cell lines (disease/function), z score",TBI + 5 mg/kg LMW-DS,−2.078
same,"Cell proliferation of leukocyte cell lines (disease/function), z score",TBI + 5 mg/kg LMW-DS,−2.754
same,"Cellular homeostasis (disease/function), z score",TBI + 5 mg/kg LMW-DS,−3.19
same,"Chemotaxis (disease/function), z score",TBI + 5 mg/kg LMW-DS,−3.642
same,"Concentration of prostaglandin (disease/function), z score",TBI + 5 mg/kg LMW-DS,−0.911
same,"Development of vasculature (disease/function), z score",TBI + 5 mg/kg LMW-DS,−1.534
same,"Digestive organ tumor (disease/function), z score",TBI + 5 mg/kg LMW-DS,−1.149
same,"Digestive system cancer (disease/function), z score",TBI + 5 mg/kg LMW-DS,−2.221
same,"Edema (disease/function), z score",TBI + 5 mg/kg LMW-DS,3.386
same,"Epithelial neoplasm (disease/function), z score",TBI + 5 mg/kg LMW-DS,−1.393
same,"Extracranial solid tumor (disease/function), z score",TBI + 5 mg/kg LMW-DS,−0.992
same,"Feeding (disease/function), z score",TBI + 5 mg/kg LMW-DS,−0.895
same,"Growth of tumor (disease/function), z score",TBI + 5 mg/kg LMW-DS,−1.233
same,"Hematologic cancer (disease/function), z score",TBI + 5 mg/kg LMW-DS,−1.067
same,"Incidence of tumor (disease/function), z score",TBI + 5 mg/kg LMW-DS,−0.731
same,"Leukocyte migration (disease/function), z score",TBI + 5 mg/kg LMW-DS,−2.163
same,"Leukopoiesis (disease/function), z score",TBI + 5 mg/kg LMW-DS,−3.549
same,"Locomotion (disease/function), z score",TBI + 5 mg/kg LMW-DS,−0.039
same,"Lymphocyte homeostasis (disease/function), z score",TBI + 5 mg/kg LMW-DS,−2.94
same,"Lymphocytic cancer (disease/function), z score",TBI + 5 mg/kg LMW-DS,−0.48
same,"Lymphocytic neoplasm (disease/function), z score",TBI + 5 mg/kg LMW-DS,−0.48
same,"Lymphopoiesis (disease/function), z score",TBI + 5 mg/kg LMW-DS,−3.105
same,"Lymphoproliferative disorder (disease/function), z score",TBI + 5 mg/kg LMW-DS,−0.48
same,"Malignant solid tumor (disease/function), z score",TBI + 5 mg/kg LMW-DS,−1.492
same,"Metabolism of hormone (disease/function), z score",TBI + 5 mg/kg LMW-DS,−1.632
same,"Migration of cells (disease/function), z score",TBI + 5 mg/kg LMW-DS,−3.087
same,"NF-κB Signaling canonical pathway, effect",TBI + 5 mg/kg LMW-DS,Inhibited
same,"Necrosis (disease/function), z score",TBI + 5 mg/kg LMW-DS,−1.503
same,"Neoplasia of leukocytes (disease/function), z score",TBI + 5 mg/kg LMW-DS,−0.48
same,"Non-melanoma solid tumor (disease/function), z score",TBI + 5 mg/kg LMW-DS,−1.249
same,"Osteoarthritis Pathway canonical pathway, effect",TBI + 5 mg/kg LMW-DS,Inhibited
same,"Proliferation of hematopoietic progenitor cells (disease/function), z score",TBI + 5 mg/kg LMW-DS,−2.951
same,"Quantity of cells (disease/function), z score",TBI + 5 mg/kg LMW-DS,−3.092
same,"Quantity of epithelial tissue (disease/function), z score",TBI + 5 mg/kg LMW-DS,−0.028
same,"Quantity of neuroglia (disease/function), z score",TBI + 5 mg/kg LMW-DS,−1.446
same,"Resorption of bone (disease/function), z score",TBI + 5 mg/kg LMW-DS,−0.478
same,"Role of NFAT in Cardiac Hypertrophy canonical pathway, effect",TBI + 5 mg/kg LMW-DS,Inhibited
same,"Secretion of molecule (disease/function), z score",TBI + 5 mg/kg LMW-DS,1.634
same,"Size of body (disease/function), z score",TBI + 5 mg/kg LMW-DS,−4.771
same,"Synthesis of hormone (disease/function), z score",TBI + 5 mg/kg LMW-DS,−1.632
same,"Transport of molecule (disease/function), z score",TBI + 5 mg/kg LMW-DS,0.248
same,"Vasculogenesis (disease/function), z score",TBI + 5 mg/kg LMW-DS,−2.274
same,"Adrenomedullin Signaling pathway canonical pathway, z score",[1],−2.236
same,"NF-κB Signaling canonical pathway, z score",[1],−2
same,"Osteoarthritis Pathway canonical pathway, z score",[1],−2.646
same,"Role of NFAT in Cardiac Hypertrophy canonical pathway, z score",[1],−1.633
same,"Apoptosis (disease/function), z score",TBI + 15 mg/kg LMW-DS,−0.502
same,"Apoptosis of tumor cell lines (disease/function), z score",TBI + 15 mg/kg LMW-DS,0.09
same,"Behavior (disease/function), z score",TBI + 15 mg/kg LMW-DS,−0.139
same,"Cell death (disease/function), z score",TBI + 15 mg/kg LMW-DS,−0.141
same,"Necrosis (disease/function), z score",TBI + 15 mg/kg LMW-DS,−0.477
same,"Quantity of blood cells (disease/function), z score",TBI + 15 mg/kg LMW-DS,−0.34
same,"Quantity of cells (disease/function), z score",TBI + 15 mg/kg LMW-DS,−0.797
same,"Quantity of lymphocytes (disease/function), z score",TBI + 15 mg/kg LMW-DS,−0.943
same,"Transcription of RNA (disease/function), z score",TBI + 15 mg/kg LMW-DS,−2.488
same,Effect on diseases or functions annotation: Abdominal cancer,TBI + 1 mg/kg LMW-DS,Inhibited
same,Effect on diseases or functions annotation: Abdominal carcinoma,TBI + 1 mg/kg LMW-DS,Inhibited
same,Effect on diseases or functions annotation: Abdominal neoplasm,TBI + 1 mg/kg LMW-DS,Inhibited
same,Effect on diseases or functions annotation: Activation of blood cells,TBI + 1 mg/kg LMW-DS,Activated
same,Effect on diseases or functions annotation: Activation of cells,TBI + 1 mg/kg LMW-DS,Activated
same,Effect on diseases or functions annotation: Activation of leukocytes,TBI + 1 mg/kg LMW-DS,Activated
same,Effect on diseases or functions annotation: Activation of lymphocytes,TBI + 1 mg/kg LMW-DS,Inhibited
same,Effect on diseases or functions annotation: Adhesion of tumor cell lines,TBI + 1 mg/kg LMW-DS,Activated
same,Effect on diseases or functions annotation: Apoptosis,TBI + 1 mg/kg LMW-DS,Inhibited
